Measurements as given in patent EP1790655B1, “Biologically active peptides” (CMS Peptides Patent Holding Company Limited, priority 2001, dated 2003).

Columns and labels:
S180 sarcoma cells = assay: growth of transplanted S180 sarcoma in mice; format: in vivo, BALB/c mice; details: 20mg/kg i.p. once per day from the day after transplanting
Protocol: (§1) Intraperitoneal injection, once per day. […] Treatment of all groups with testing substance lasted for 30 days or until the animal died unless otherwise specified.
The mice were killed by cervical vertebra dislocation. Vigorously growing and non-disrupted tumor masses were harvested and washed clean with sterile saline. The tissue was dispersed in saline to a homogenous cell suspension, in a ratio of 1 g tissue to 4 ml saline. […] Administration of test substance treatment started as described in section Method 1.
After the phagocytosis index study, the mice were killed by cervical vertebra dislocation. The liver, spleen, and cancer tissue were dissected, blotted dry, and weighed.

[1] = system: ascitic fluid type liver cancer H22; assay: survival of mice with transplanted ascitic fluid type liver cancer H22; format: in vivo, BALB/c mice; details: 20mg/kg i.p. once per day from the day after transplanting, Kaplan-meier mean
Protocol: Intraperitoneal injection, once per day. […] The cyclophosphamide groups were treated on the next day after transplanting the cancer cells. Treatment of all groups with testing substance lasted for 30 days or until the animal died unless otherwise specified.
Stock H22 cells were incubated in DMEM/F12 medium supplemented with 10% fetal bovine serum, 37°C/5%CO2 for 72 hrs, then washed 3-4 times with Hank's solution at room temperature. Adjust cell concentration to 1-2 x 10^9 per litre with Hank's solution. 0.2ml of the cell suspension was implanted to the abdominal cavity of several BALB/c mice for 6-8 days. The mice were killed by cervical vertebra dislocation. Ascitic fluid of the mice was collected asceptically and the cell concentration adjusted to 1 x 10^6 per ml with Hank's solution. 0.2ml of the cell suspension was implanted into the abdominal cavity of healthy mice to generate the H22 carrying mouse model for ascitic fluid type liver cancer. Administration of test substance started as described in section Method 1. Survival data of the mice was recorded. If the animal survived longer than the experiment, the survival days was recorded as the duration of the experiment. […] The survival index was calculated according to the following formula: Survival index = (mean survival days of treatment group-mean survival days of control group)ömean survival days of control group x 100% [formula]

L1210 leukemia = assay: survival of mice with transplanted L1210 leukemia; format: in vivo, DBA/2 mice; details: 20mg/kg i.p. once per day from the day after transplanting, Kaplan-meier mean
Text: as §1
The mice were then killed by cervical vertebra dislocation and their ascitic fluid collected aseptically. […] Treatment started in the testing animals as described in section Method 1. Mean survival day was obtained by the Kaplan-meier method in the Survival option of the SPSS software. If the animal survived longer than the experiment, the survival days was entered as the duration of the experiment.

[2] = system: Masugi nephritis rat model; assay: Masugi nephritis rat model; format: in vivo, Sprague Dawley (SD) rats; details: peptides 50µg/kg/day
Text: The anti-serum was then exuded and isolated.
Whole blood was collected from 15 healthy SD rats.
3. […] Treatment started on the day of induction.
4. […] Adequate drinking water was supplied.

What does the source list for `O=P1(N(CCCl)CCCl)NCCCO1` (centres unmarked) [Cyclo-phos phamide, Cyclophosphamide]?
Tumor weight (S180 sarcoma cells): 0.68 ± 0.32 g; Survival days [1]: 24.7 ± 10.2 days; Survival days (L1210 leukemia): 24.0 ± 5.3 days

For `C[C@]12CCC(=O)C=C1CC[C@@H]1[C@@H]2[C@@H](O)C[C@@]2(C)[C@H]1CC[C@]2(O)C(=O)CO` [hydrocortisone, Hydrocortisone], which “spleen index (mean spleen weight / mean body weight)” value ([2]; after three weeks of treatment, hydrocortisone 3.3mg/kg/day (halved after first week) i.p.) is on record?
Its value is 4.5±1.4 x10-3.

And the growth rate ([2]; nephritis rats, hydrocortisone 3.3mg/kg/day i.p.)?
Its growth rate is “slower growth rate than normal”.
